According to PubChem BioAssay (NCI):
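Method: 48-hour compound exposure of cells in 96-well plates, five concentrations, linear interpolation of endpoints. Abbreviation: GI50, concentration required for 50% inhibition of growth. TGI is the concentration that stops growth completely.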

Legend:
Test in all cases: growth of human tumour cells (NCI), 48 h
[1] = tested on: SNB-19 CNS
[2] = tested on: NCI-H460 lung
[3] = tested on: A549 NSCLC
[4] = tested on: CCRF-CEM leukemia
[5] = tested on: HCT-15 colon
[6] = tested on: KM12 colon
[7] = tested on: MALME-3M melanoma
[8] = tested on: SF-295 CNS
[9] = tested on: SK-MEL-5 melanoma
[10] = tested on: OVCAR-5 ovarian
[11] = tested on: HCC-2998 colon
[12] = tested on: NCI-H23 lung
[13] = tested on: HT29 colon
[14] = tested on: IGROV1 ovarian
[15] = tested on: DMS 114 small cell lung
[16] = tested on: SW-620 colon
[17] = tested on: EKVX NSCLC
[18] = tested on: OVCAR-3 ovarian
[19] = tested on: DMS 273 small cell lung
[20] = tested on: LOX IMVI melanoma
[21] = tested on: SR leukemia
[22] = tested on: U251 CNS
[23] = tested on: COLO 205 colon
[24] = tested on: SN12C renal
[25] = tested on: HCT-116 colon
[26] = tested on: SK-MEL-28 melanoma
[27] = tested on: TK-10 renal
[28] = tested on: UACC-257 melanoma
[29] = tested on: UO-31 renal
[30] = tested on: CAKI-1 renal
[31] = tested on: NCI-H226 lung
[32] = tested on: SNB-75 CNS
[33] = tested on: RXF 393 renal
[34] = tested on: 786-0 renal
[35] = tested on: OVCAR-4 ovarian
[36] = tested on: SF-268 CNS
[37] = tested on: SK-OV-3 ovarian
[38] = tested on: UACC-62 melanoma
[39] = tested on: DLD-1 colon
[40] = tested on: SK-MEL-2 melanoma
[41] = tested on: M14 melanoma
[42] = tested on: KM20L2 colon
[43] = tested on: OVCAR-8 ovarian
[44] = tested on: SF-539 CNS
[45] = tested on: MDA-N
[46] = tested on: NCI-H522 lung
[47] = tested on: MOLT-4 leukemia
[48] = tested on: DU-145 prostate
[49] = tested on: K-562 leukemia
[50] = tested on: MCF7 breast
[51] = tested on: MDA-MB-231 breast
[52] = tested on: NCI/ADR-RES ovarian
[53] = tested on: PC-3 prostate
[54] = tested on: HOP-92 NSCLC
[55] = tested on: HS 578T breast
[56] = tested on: T-47D breast
[57] = tested on: HOP-62 NSCLC
[58] = tested on: RPMI-8226 leukemia
[59] = tested on: BT-549 breast
[60] = tested on: HL-60(TB) leukemia
[61] = tested on: MDA-MB-435
[62] = tested on: ACHN renal
[63] = tested on: A498 renal

[Cl-].[Cl-].[Cl-].[O-]c1cccc2cccnc12.[O-]c1cccc2cccnc12.[O]=[Mo]
GI50 [1]: 4.87 µM | TGI [1]: > 100 µM | GI50 [2]: 2.52 µM | TGI [2]: 11.7 µM | GI50 [3]: 3.59 µM | TGI [3]: > 100 µM | GI50 [4]: 0.35 µM | TGI [4]: > 100 µM | GI50 [5]: 2.39 µM | TGI [5]: > 100 µM | GI50 [6]: 0.448 µM | TGI [6]: 2.08 µM | GI50 [7]: 2.25 µM | TGI [7]: 4.99 µM | GI50 [8]: 2.8 µM | TGI [8]: 17.2 µM | TGI [9]: 3.89 µM | GI50 [10]: 2.85 µM | TGI [10]: 8.6 µM | GI50 [11]: 2.41 µM | TGI [11]: 5.69 µM | GI50 [12]: 2.6 µM | TGI [12]: 8.38 µM | GI50 [13]: 2.88 µM | TGI [13]: 11.5 µM | TGI [14]: 35 µM | TGI [15]: 3.13 µM | GI50 [16]: 1.92 µM | TGI [16]: > 100 µM | GI50 [17]: 15.4 µM | TGI [17]: 78.4 µM | GI50 [18]: 6.88 µM | TGI [18]: > 100 µM | TGI [19]: 4.41 µM | GI50 [20]: 2.33 µM | TGI [20]: 22 µM | TGI [21]: > 100 µM | GI50 [22]: 3.57 µM | TGI [22]: 40.5 µM | GI50 [23]: 4.6 µM | GI50 [24]: 6.71 µM | TGI [24]: > 100 µM | GI50 [25]: 2.58 µM | TGI [25]: 36.4 µM | GI50 [26]: 2.43 µM | TGI [26]: 9.41 µM | GI50 [27]: 15.2 µM | TGI [27]: > 100 µM | GI50 [28]: 2.1 µM | TGI [28]: 6.69 µM | GI50 [29]: 4.09 µM | TGI [29]: 24.1 µM | GI50 [30]: 20.6 µM | TGI [30]: > 100 µM | GI50 [31]: 2.28 µM | TGI [31]: 14.2 µM | GI50 [32]: 5.08 µM | TGI [32]: > 100 µM | GI50 [33]: 2 µM | TGI [33]: 4.89 µM | GI50 [34]: 18.5 µM | TGI [34]: 99.8 µM | GI50 [35]: 3.9 µM | TGI [35]: 47 µM | GI50 [36]: 6.33 µM | TGI [36]: 55.2 µM | GI50 [37]: 15.1 µM | TGI [37]: 39.6 µM | GI50 [38]: 2.49 µM | TGI [38]: 7.41 µM | TGI [39]: > 100 µM | GI50 [40]: 3.37 µM | TGI [40]: 18.1 µM | GI50 [41]: 1.81 µM | TGI [41]: 5.48 µM | TGI [42]: 70.6 µM | GI50 [43]: 2.53 µM | TGI [43]: 12.3 µM | GI50 [44]: 7.34 µM | TGI [44]: > 100 µM

CC12CCC(C(Br)(Br)C1=O)C2(C)C (centres undefined)
TGI [1]: > 57.6 µM | TGI [45]: 2.65 µM | TGI [46]: 0.155 µM | TGI [2]: 27.2 µM | TGI [47]: 2.53 µM | TGI [3]: > 100 µM | TGI [4]: 0.196 µM | TGI [5]: 3.57 µM | TGI [6]: 16.1 µM | TGI [7]: 1 µM | TGI [48]: 37.1 µM | TGI [8]: 22.4 µM | TGI [9]: 4.74 µM | TGI [10]: 6.57 µM | TGI [11]: 4.91 µM | TGI [12]: 2.21 µM | TGI [13]: 3.19 µM | TGI [49]: 13.1 µM | TGI [14]: 0.516 µM | TGI [50]: > 36.8 µM | TGI [51]: 1.51 µM | TGI [16]: 0.71 µM | TGI [52]: 1.06 µM | TGI [17]: 2.81 µM | TGI [53]: 7.98 µM | TGI [54]: 2.81 µM | TGI [18]: 4.1 µM | TGI [20]: 11.3 µM | TGI [21]: 12.9 µM | TGI [55]: 9.29 µM | TGI [22]: 0.224 µM | TGI [23]: 14.7 µM | TGI [24]: 5.84 µM | TGI [25]: 3.71 µM | TGI [26]: 6.46 µM | TGI [56]: 1.02 µM | TGI [57]: 13.6 µM | TGI [27]: 11 µM | TGI [58]: 1.78 µM | TGI [28]: 16.7 µM | TGI [29]: 3.25 µM | TGI [30]: 14.9 µM | TGI [31]: 8.64 µM | TGI [32]: 11.6 µM | TGI [59]: 2.68 µM | TGI [60]: 0.149 µM | TGI [33]: 2.54 µM | TGI [34]: 3.84 µM | TGI [35]: 5.58 µM | TGI [36]: 1.22 µM | TGI [37]: > 31.6 µM | TGI [61]: 2.24 µM | TGI [38]: 10.1 µM | TGI [62]: 7.69 µM | TGI [40]: 0.98 µM | TGI [41]: 3.98 µM | TGI [63]: 17.5 µM | TGI [43]: 11.3 µM | TGI [44]: 16.9 µM
